Measurements: patent US20190055235A1, “SUBSTITUTED BICYCLIC COMPOUNDS AS BROMODOMAIN INHIBITORS” (ZENITH EPIGENETICS LTD., priority 2014, published 2019)
pIC50: −log10 of the molar value.

Key:
[1] = molecular target: T1, Brd4 bromodomain 1 (BRD4(1)) (Homo sapiens, UniProt O60885); test: Inhibition of tetra-acetylated histone H4 binding to Brd4 bromodomain 1 (AlphaScreen); conditions: His-tagged BRD4(1) at 20 nM, biotinylated tetra-acetylated histone H4 peptide, 30 min incubation
T1 construct: N-terminally His-tagged bromodomains (BRD4(1) at 20 nM and BRD4(2) at 100 nM); made in house; host or cells: E. coli BL21(DE3)
Method: Proteins were cloned and overexpressed with a N-terminal 6×His tag, then purified by nickel affinity followed by size exclusion chromatography. Briefly, E. coli BL21(DE3) cells were transformed with a recombinant expression vector encoding N-terminally Nickel affinity tagged bromodomains from Brd2, Brd3, Brd4. Cell cultures were incubated at 37° C. with shaking to the appropriate density and induced overnight with IPTG. The supernatant of lysed cells was loaded onto Ni-IDA column for purification. Eluted protein was pooled, concentrated and further purified by size exclusion chromatography. Fractions representing monomeric protein were pooled, concentrated, aliquoted, and frozen at −80° C. for use in subsequent experiments.
Binding of tetra-acetylated histone H4 peptide (Millipore) and BET bromodomains was confirmed by Amplified Luminescent Proximity Homogenous Assay (AlphaScreen). N-terminally His-tagged bromodomains (BRD4(1) at 20 nM and BRD4(2) at 100 nM) and biotinylated tetra-acetylated histone H4 (10-25 nM) were incubated in the presence of nickel chelate acceptor beads and streptavidin donor beads (PerkinAlmer, 6760000K) added to a final concentration of 2 μg/ml under green light in a white 96 well microtiter plate (Greiner). For inhibition assays, serially diluted compounds were added to the reaction mixtures in a 0.1% final concentrations of DMSO. Final buffer concentrations were 50 mM HEPES, 100 mM NaCl and 0.1% BSA buffer, pH 7.4 and optimized to 30 min incubation time. Assay plates were read at 570 nm on a Synergy H4 Plate Reader (Biotek). IC50 values were determined from a dose response curve.

[2] = system: hIL-6 mRNA; test: Inhibition of hIL-6 mRNA transcription in PMA-differentiated, LPS-stimulated U937 cells; assay type: cell-based; conditions: Homo sapiens, U-937; U937 cells differentiated with PMA, 1 h pretreatment, 1 ug/mL LPS, 3 h, real-time PCR; read-out: IL-6 activity
Method: Human leukemic monocyte lymphoma U937 cells (CRL-1593.2) were plated at a density of 3.2×10^4 cells per well in a 96-well plate in 100 μL RPMI-1640 containing 10% FBS and penicillin/streptomycin, and were differentiated into macrophages for 3 days in 60 ng/mL PMA ([…]) at 37° C. in 5% CO2 prior to the addition of compound. The cells were pretreated for 1 h with increasing concentrations of test compound in 0.1% DMSO prior to stimulation with 1 ug/mL lipopolysaccharide from Escherichia coli. Triplicate wells were used for each concentration. The cells were incubated at 37′C, 5% CO2 for 3 h before the cells were harvested. At time of harvest, media was removed and cells were rinsed in 200 μL PBS. Cells were harvested using the mRNA Catcher PLUS kit according to manufacturer's instructions. The eluted mRNA was then used in a one-step quantitative real-time PCR reaction using components of the RNA UltraSense™ One-Step Kit (Life Technologies) together with Applied Biosystems TaqMan® primer-probes for hIL-6 and Cyclophilin. Real-time PCR plates were run on a ViiA™7 real time PCR machine (Applied Biosystems). The data was analyzed, and the Ct values for hIL-6 were normalized to an internal control prior to determining the fold expression of each sample, relative to the control.

[3] = system: hIL-17 mRNA; test: Inhibition of hIL-17 mRNA transcription in OKT3-stimulated human peripheral blood mononuclear cells; assay type: cell-based; conditions: human PBMC, 1 h pretreatment, OKT3 antibody, 6 h, real-time PCR; read-out: IL-17 activity
Method: Human peripheral blood mononuclear cells were plated (2.0×10^5 cells per well) in a 96-well plate in 45 μL OpTimizer T Cell expansion media (Life Technologies) containing 20 ng/ml IL-2 and penicillin/streptomycin. The cells were treated with increasing concentrations of the test compound or DMSO (0.1%), and were incubated at 37° C., 5% CO2 for 1 h before addition of 10× stock OKT3 antibody at 10 ug/ml in media. Triplicate wells were used for each concentration. Cells were incubated at 37° C., 5% CO2 for 6 h before the cells were harvested. At time of harvest, cells were pelleted by centrifugation at 800 rpm for 5 min. Cells were harvested using the mRNA Catcher PLUS kit according to manufacturer's instructions. The eluted mRNA was then used in a one-step quantitative real-time PCR reaction, using components of the RNA UltraSense™ One-Step Kit (Life Technologies) together with Applied Biosystems TaqMan® primer-probes for hIL-17 and Cyclophilin. Real-time PCR plates were run on a ViiA™7 real time PCR machine (Applied Biosystems). The data was analyzed, and the Ct values for hIL-17 were normalized to an internal control prior to determining the fold induction of each unknown sample, relative to the control.

Compound | pIC50 [1] | pIC50 [2] | pIC50 [3]
Cc1noc(C)c1-c1ccc2[nH]nc(CN3CCOCC3)c2c1 [Example 14, 4-[[5-(3,5-Dimethylisoxazol-4-yl)-1H-indazol-3-yl]methyl]morpholine] | 5.52 to 6.52 | 4.52 to 5.52 | 
Cc1noc(C)c1-c1cnc2nc(C)n(Cc3cccc(C(=O)O)c3)c2c1 [Example 6, 3-((6-(3,5-Dimethylisoxazol-4-yl)-2-methyl-1H-imidazo[4,5-b]pyridin-1-yl)methyl)benzoic acid] | 4.52 to 5.52 |  | 
COC1CCN(Cc2n[nH]c3ccc(-c4c(C)noc4C)cc23)CC1 [Example 13, 4-[3-[(4-Methoxy-1-piperidyl)methyl]-1H-indazol-5-yl]-3,5-dimethyl-isoxazole] | 5.52 to 6.52 | 5.52 to 6.52 | 
Cc1noc(C)c1-c1ccc2[nH]nc(CN3CCC(F)(F)CC3)c2c1 [Example 9, 4-(3-((4,4-Difluoropiperidin-1-yl)methyl)-1H-indazol-5-yl)-3,5-dimethylisoxazole] | ≥ 6.52 | 5.52 to 6.52 | 5.52 to 6.52
COC(=O)c1cccc(Cn2c(C)nc3ncc(-c4c(C)noc4C)cc32)c1 [Example 2, Methyl 3-((6-(3,5-dimethylisoxazol-4-yl)-2-methyl-1H-imidazo[4,5-b]pyridin-1-yl)methyl)benzoate] | ≥ 6.52 | 5.52 to 6.52 | 5.52 to 6.52
Cc1noc(CO)c1-c1cnc2nc(C)n(Cc3ccccc3)c2c1 [Example 7, (4-(1-Benzyl-2-methyl-1H-imidazo[4,5-b]pyridin-6-yl)-3-methylisoxazol-5-yl)methanol] | ≥ 6.52 | 5.52 to 6.52 | 
Cc1noc(C)c1-c1ccc2[nH]nc(CN3CCN(C)CC3)c2c1 [Example 11, 3,5-Dimethyl-4-[3-[(4-methylpiperazin-1-yl)methyl]-1H-indazol-5-yl]isoxazole] | 5.52 to 6.52 | 4.52 to 5.52 | 5.52 to 6.52

More lines, now with the values ahead:

pIC50 [1] | pIC50 [2] | pIC50 [3] | Compound
≥ 6.52 | 5.52 to 6.52 |  | COC(=O)c1ccc(Cn2c(C)nc3ncc(-c4c(C)noc4C)cc32)cc1 [Example 3, Methyl 4-((6-(3,5-dimethylisoxazol-4-yl)-2-methyl-1H-imidazo[4,5-b]pyridin-1-yl)methyl)benzoate]
≥ 6.52 | 5.52 to 6.52 |  | Cc1noc(C)c1-c1ccc2[nH]nc(CN3CCC(C#N)CC3)c2c1 [Example 12, 1-[[5-(3,5-Dimethylisoxazol-4-yl)-1H-indazol-3-yl]methyl]piperidine-4-carbonitrile]
≥ 6.52 | 5.52 to 6.52 |  | Cc1nocc1-c1cnc2nc(C)n(Cc3ccccc3)c2c1 [Example 8, 4-(1-Benzyl-2-methyl-1H-imidazo[4,5-b]pyridin-6-yl)-3-methylisoxazole]
≥ 6.52 | 5.52 to 6.52 | 5.52 to 6.52 | CSc1ccc(Cn2c(C)nc3ncc(-c4c(C)noc4C)cc32)cc1 [Example 1, 3,5-Dimethyl-4-(2-methyl-1-(4-(methylthio)benzyl)-1H-imidazo[4,5-b]pyridin-6-yl)isoxazole]
≥ 6.52 | 5.52 to 6.52 | 5.52 to 6.52 | Cc1noc(C)c1-c1ccc2[nH]nc(CN3CCCCC3)c2c1 [Example 10, 3,5-Dimethyl-4-[3-(1-piperidylmethyl)-1H-indazol-5-yl]isoxazole]
≥ 6.52 |  |  | Cc1noc(C)c1-c1cnc2nc(C)n(Cc3ccc([S+](C)[O-])cc3)c2c1 (centres unmarked) [Example 5, 3,5-Dimethyl-4-(2-methyl-1-(4-(methylsulfinyl)benzyl)-1H-imidazo[4,5-b]pyridin-6-yl)isoxazole]
≥ 6.52 | 5.52 to 6.52 | 4.52 to 5.52 | CSc1cccc(Cn2c(C)nc3ncc(-c4c(C)noc4C)cc32)c1 [Example 4, 3,5-Dimethyl-4-(2-methyl-1-(3-(methylthio)benzyl)-1H-imidazo[4,5-b]pyridin-6-yl)isoxazole]
